Laboratory results published in patent US12503436B2, “Compounds and compositions for treating conditions associated with STING activity” (NOVARTIS PHARMA AG, priority 2021, dated 2025).

biological target: STING (Homo sapiens, UniProt Q86WV6, G230A/H232R/R293Q/R71H); experiment: STING reporter assay in THP1-Dual KO-IFNAR2 cells (2′3′cGAMP stimulation, luciferase reporter); assay type: cell-based; details: 15 μM 2′3′cGAMP stimulation, 24 h, read-out: Pharmaron, THP1_IFNAR2 STING 24 h Luci Normalized: GeoMean EC50
Summary of the method: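 THP1-Dual KO-IFNAR2 cells (2×10E6 cells/mL) with compounds at 0.0017-100 μM final, stimulated with 15 μM final 2′3′cGAMP delivered by Lipofectamine 2000; 24 h at 37 °C. Luciferase in supernatant read with QUANTI-Luc Plus; EC50 derived from luminescence.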

Sequence of STING (Q86WV6 whole entry R71H/G230A/H232R/R293Q): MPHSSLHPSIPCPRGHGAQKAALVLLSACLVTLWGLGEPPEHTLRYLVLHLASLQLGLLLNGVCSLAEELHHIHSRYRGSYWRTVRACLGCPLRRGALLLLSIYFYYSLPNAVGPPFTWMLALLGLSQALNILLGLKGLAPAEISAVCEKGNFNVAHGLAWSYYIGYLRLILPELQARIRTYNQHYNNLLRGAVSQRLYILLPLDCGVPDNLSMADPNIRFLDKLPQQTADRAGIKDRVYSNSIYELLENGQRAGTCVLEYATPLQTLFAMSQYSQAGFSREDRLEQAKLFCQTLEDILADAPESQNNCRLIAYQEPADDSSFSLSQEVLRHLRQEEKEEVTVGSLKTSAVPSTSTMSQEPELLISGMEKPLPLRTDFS

EC50 | Compound
40 to 200 nM | COCCOCC(=O)Nc1c[nH]c2ccc(OCC[C@@H]3C[C@@H]4CN(CC(F)(F)F)C[C@@H]4C3)cc12 [Compound 408, 2-(2-methoxyethoxy)-N-(5-(2-((3aR,5r,6aS)-2-(2,2,2-trifluoroethyl)octahydrocyclopenta[c]pyrrol-5-yl)ethoxy)-1H-indol-3-yl)acetamide]
200 to 1000 nM | C[C@]1(C(=O)Nc2c[nH]c3ccc(OCc4ccc(C(F)(F)F)cc4)cc23)C[C@@H](O)C1 [Compound 414, cis-3-hydroxy-1-methyl-N-(5-((4-(trifluoromethyl)benzyl)oxy)-1H-indol-3-yl)cyclobutane-1-carboxamide]
1000 to 5000 nM | C[C@]1(C(=O)Nc2c[nH]c3ccc(OCc4ccc(C(F)(F)F)cc4)cc23)C[C@H](O)C1 [Compound 415, trans-3-hydroxy-1-methyl-N-(5-((4-(trifluoromethyl)benzyl)oxy)-1H-indol-3-yl)cyclobutane-1-carboxamide]
200 to 1000 nM | C[C@]1(C(=O)Nc2c[nH]c3ccc(OCc4ccc(C(F)(F)F)cc4)cc23)C[C@H](CO)C1 [Compound 416, cis-3-(hydroxymethyl)-1-methyl-N-(5-((4-(trifluoromethyl)benzyl)oxy)-1H-indol-3-yl)cyclobutane-1-carboxamide]
200 to 1000 nM | C[C@]1(C(=O)Nc2c[nH]c3ccc(OCc4ccc(C(F)(F)F)cc4)cc23)C[C@@H](CO)C1 [Compound 417, trans-3-(hydroxymethyl)-1-methyl-N-(5-((4-(trifluoromethyl)benzyl)oxy)-1H-indol-3-yl)cyclobutane-1-carboxamide]
200 to 1000 nM | C[C@]1(C(=O)Nc2c[nH]c3ccc(OCc4ccc(C(F)(F)F)cc4)cc23)CC[C@H](O)CC1 [Compound 418, trans-4-hydroxy-1-methyl-N-(5-((4-(trifluoromethyl)benzyl)oxy)-1H-indol-3-yl)cyclohexane-1-carboxamide]
200 to 1000 nM | C[C@]1(C(=O)Nc2c[nH]c3ccc(OCc4ccc(C(F)(F)F)cc4)cc23)CC[C@@H](O)CC1 [Compound 419, trans-4-hydroxy-1-methyl-N-(5-((4-(trifluoromethyl)benzyl)oxy)-1H-indol-3-yl)cyclohexane-1-carboxamide]
200 to 1000 nM | CC1(C(=O)Nc2c[nH]c3ccc(OCc4ccc(C(F)(F)F)cc4)cc23)CN(CC(F)F)C1 [Compound 421, 1-(2,2-difluoroethyl)-3-methyl-N-(5-((4-(trifluoromethyl)benzyl)oxy)-1H-indol-3-yl)azetidine-3-carboxamide]
200 to 1000 nM | CO[C@H]1C[C@](C)(C(=O)Nc2c[nH]c3ccc(OCC[C@@H]4C[C@@H]5CN(CC(F)(F)F)C[C@@H]5C4)cc23)C1 [Compound 427, trans-3-methoxy-1-methyl-N-(5-(2-((3aR,5r,6aS)-2-(2,2,2-trifluoroethyl)octahydrocyclopenta[c]pyrrol-5-yl)ethoxy)-1H-indol-3-yl)cyclobutane-1-carboxamide]
200 to 1000 nM | CC1OC(C)C1C(=O)Nc1c[nH]c2ccc(OCc3ccc(C(F)(F)F)cc3)cc12 (centres unmarked) [Compound 428, 2,4-dimethyl-N-(5-((4-(trifluoromethyl)benzyl)oxy)-1H-indol-3-yl)oxetane-3-carboxamide]
40 to 200 nM | CC[C@H](O)C(=O)Nc1c[nH]c2ccc(OCCc3ccc(C(F)(F)F)cc3)cc12 [Compound 430, (S)-2-hydroxy-N-(5-(4-(trifluoromethyl)phenethoxy)-1H-indol-3-yl)butanamide]
40 to 200 nM | CC[C@@H](O)C(=O)Nc1c[nH]c2ccc(OCCc3ccc(C(F)(F)F)cc3)cc12 [Compound 431, (R)-2-hydroxy-N-(5-(4-(trifluoromethyl)phenethoxy)-1H-indol-3-yl)butanamide]
200 to 1000 nM | O=C(CC(O)C(F)(F)F)Nc1c[nH]c2ccc(OCC[C@@H]3C[C@@H]4CN(CC(F)(F)F)C[C@@H]4C3)cc12 (stereo partly drawn) [Compound 433, 4,4,4-trifluoro-3-hydroxy-N-(5-(2-((3aR,5r,6aS)-2-(2,2,2-trifluoroethyl)octahydrocyclopenta[c]pyrrol-5-yl)ethoxy)-1H-indol-3-yl)butanamide]
40 to 200 nM | O=C(COCC(F)(F)F)Nc1c[nH]c2ccc(OCC[C@@H]3C[C@@H]4CN(CC(F)(F)F)C[C@@H]4C3)cc12 [Compound 434, 2-(2,2,2-trifluoroethoxy)-N-(5-(2-((3aR,5r,6aS)-2-(2,2,2-trifluoroethyl)octahydrocyclopenta[c]pyrrol-5-yl)ethoxy)-1H-indol-3-yl)acetamide]
40 to 200 nM | CC(=O)Nc1c[nH]c2ccc(OC3CCc4cc(C(F)(F)F)ccc4C3)cc12 (centres unmarked) [Compound 436, N-(5-((6-(trifluoromethyl)-1,2,3,4-tetrahydronaphthalen-2-yl)oxy)-1H-indol-3-yl)acetamide]

Compound | EC50
CC(=O)N[C@H]1C[C@@](C)(C(=O)Nc2c[nH]c3ccc(O[C@H]4C[C@@H](c5ccc(C(F)(F)F)cc5)C4)cc23)C1 [Compound 412, cis-3-acetamido-1-methyl-N-(5-(cis-3-(4-(trifluoromethyl)phenyl)cyclobutoxy)-1H-indol-3-yl)cyclobutane-1-carboxamide] | 1000 to 5000 nM
CC(=O)N[C@H]1C[C@](C)(C(=O)Nc2c[nH]c3ccc(O[C@H]4C[C@@H](c5ccc(C(F)(F)F)cc5)C4)cc23)C1 [Compound 413, trans-3-acetamido-1-methyl-N-(5-(cis-3-(4-(trifluoromethyl)phenyl)cyclobutoxy)-1H-indol-3-yl)cyclobutane-1-carboxamide] | 1000 to 5000 nM
O=C(Nc1c[nH]c2ccc(O[C@H]3C[C@@H](c4ccc(C(F)(F)F)cc4)C3)cc12)C1(CO)CCC1 [Compound 420, 1-(hydroxymethyl)-N-(5-(cis-3-(4-(trifluoromethyl)phenyl)cyclobutoxy)-1H-indol-3-yl)cyclobutane-1-carboxamide] | 200 to 1000 nM
COCCN1CC(C)(C(=O)Nc2c[nH]c3ccc(O[C@H]4C[C@@H](c5ccc(C(F)(F)F)cc5)C4)cc23)C1 [Compound 422, 1-(2-methoxyethyl)-3-methyl-N-(5-(cis-3-(4-(trifluoromethyl)phenyl)cyclobutoxy)-1H-indol-3-yl)azetidine-3-carboxamide] | 1000 to 5000 nM
C[C@@H]1OC[C@H]1C(=O)Nc1c[nH]c2ccc(O[C@H]3C[C@H](c4ccc(C(F)(F)F)cc4)C3)cc12 [Compound 423, (2S,3R)-2-methyl-N-(5-(trans-3-(4-(trifluoromethyl)phenyl)cyclobutoxy)-1H-indol-3-yl)oxetane-3-carboxamide] | 200 to 1000 nM
C[C@H]1OC[C@H]1C(=O)Nc1c[nH]c2ccc(O[C@H]3C[C@H](c4ccc(C(F)(F)F)cc4)C3)cc12 [Compound 424, (2R,3R)-2-methyl-N-(5-(trans-3-(4-(trifluoromethyl)phenyl)cyclobutoxy)-1H-indol-3-yl)oxetane-3-carboxamide] | 200 to 1000 nM
CC[C@@H](O)C(=O)Nc1c[nH]c2ccc(O[C@H]3C[C@H](c4ccc(C(F)(F)F)cc4)C3)cc12 [Compound 429, (R)-2-hydroxy-N-(5-(trans-3-(4-(trifluoromethyl)phenyl)cyclobutoxy)-1H-indol-3-yl)butanamide] | 200 to 1000 nM
CC(=O)Nc1c[nH]c2ccc(O[C@H]3C[C@H](c4ccc(C(F)(F)F)cc4C)C3)cc12 [Compound 435, N-(5-(trans-3-(2-methyl-4-(trifluoromethyl)phenyl)cyclobutoxy)-1H-indol-3-yl)acetamide] | 40 to 200 nM
